Where two headings read alike, the source gives them in different places.
Assays:
Experiment in all cases: Glasshouse assay for herbicidal activity (pre- and post-emergence), percentage phytotoxicity
Format in all cases: in vivo
[1] = tested on: Alopecurus myosuroides (ALOMY); conditions: Alopecurus myosuroides, Rate 250 g/ha, 100%=total damage, 0%=no damage
Description: (§1) Test—Glasshouse Assay for Herbicidal Activity
(§2) Seeds of a variety of monocotyledonous and dicotyledonous test plants are sown in standard soil in pots. The plants are cultivated for one day (for pre-emergence (PRE)) or for about 12 days (for post-emergence (POST)) under controlled conditions in a glasshouse (warm climate species at 24/18° C., cool climate species at 20/16° C., both at day/night; 16 hours light; 65% humidity).
(§3) The test plants are then grown on, in a glasshouse (greenhouse) under controlled conditions (warm climate species at 24/18° C., cool climate species at 20/16° C., both at day/night; 16 hours light; 65% humidity) and are watered twice daily. 15 days after application of the test herbicide (15 DAA) (for post-emergence), and 20 days after application of the test herbicide (20 DAA) (for pre-emergence), the test plants are evaluated visually, and an assessed percentage phytotoxicity score is given for each herbicidal application on each plant species (with 100%=total damage to plant; 0%=no damage to plant).
(§4) The plant species tested are as follows: Alopecurus myosuroides (ALOMY), Avena fatua (AVEFA), Lolium perenne (LOLPE), Echinochloa crus-galli (ECHCG).

Avena fatua (AVEFA) = conditions: Avena fatua, Rate 250 g/ha, 100%=total damage, 0%=no damage
Description: as §1, §2, §3, §4

[2] = tested on: Echinochloa crus-galli (ECHCG); conditions: Echinochloa crus-galli, Rate 250 g/ha, 100%=total damage, 0%=no damage
Description: as §1, §2, §3, §4

Lolium perenne (LOLPE) = conditions: Lolium perenne, Rate 250 g/ha, 100%=total damage, 0%=no damage
Description: as §1, §2, §3, §4

[3] = post-emergence, 360 h, post-emergence, assessed visually 15 DAA, read-out: Post-emergence herbicidal activity (percentage phytotoxicity) ALOMY POST
[4] = pre-emergence, 480 h, pre-emergence, assessed visually 20 DAA, read-out: Pre-emergence herbicidal activity (percentage phytotoxicity) ALOMY PRE
[5] = post-emergence, 360 h, post-emergence, assessed visually 15 DAA, read-out: Post-emergence herbicidal activity (percentage phytotoxicity) AVEFA POST
[6] = pre-emergence, 480 h, pre-emergence, assessed visually 20 DAA, read-out: Pre-emergence herbicidal activity (percentage phytotoxicity) AVEFA PRE
[7] = post-emergence, 360 h, post-emergence, assessed visually 15 DAA, read-out: Post-emergence herbicidal activity (percentage phytotoxicity) ECHCG POST
[8] = pre-emergence, 480 h, pre-emergence, assessed visually 20 DAA, read-out: Pre-emergence herbicidal activity (percentage phytotoxicity) ECHCG PRE
[9] = post-emergence, 360 h, post-emergence, assessed visually 15 DAA, read-out: Post-emergence herbicidal activity (percentage phytotoxicity) LOLPE POST
[10] = pre-emergence, 480 h, pre-emergence, assessed visually 20 DAA, read-out: Pre-emergence herbicidal activity (percentage phytotoxicity) LOLPE PRE

Compound	pest or weed control at 250 g/ha [1, 3]	pest or weed control at 250 g/ha [1, 4]	pest or weed control at 250 g/ha (Avena fatua (AVEFA); [5])	pest or weed control at 250 g/ha (Avena fatua (AVEFA); [6])	pest or weed control at 250 g/ha [2, 7]	pest or weed control at 250 g/ha [2, 8]	pest or weed control at 250 g/ha (Lolium perenne (LOLPE); [9])	pest or weed control at 250 g/ha (Lolium perenne (LOLPE); [10])
Cc1cc(-c2ccc(F)cc2)cc(C)c1C1C(=O)CC(CC(=O)NC(C)C)C1=O (stereo not drawn) [Compound A34, 2-[3-[4-(4-fluorophenyl)-2,6-dimethyl-phenyl]-2,4-dioxo-cyclopentyl]-N-isopropyl-acetamide]	100%	100%	100%	100%	100%	100%	100%	100%
Cc1cc(-c2ccc(Cl)cc2)cc(C)c1C1C(=O)CC(CC(=O)NC(C)C)C1=O (stereo not drawn) [Compound A35]	90%	90%	100%	100%	100%	100%	100%	100%
Cc1cc(-c2ccc(F)cc2)cc(C)c1C1C(=O)CC(CC(=O)NC(C)(C)C)C1=O (stereo not drawn) [Compound A36]	90%	100%	100%	100%	100%	100%	90%	100%
Cc1cc(-c2ccc(C#N)cc2)cc(C)c1C1C(=O)CC(CC(=O)NC(C)C)C1=O (stereo not drawn) [Compound A37]	80%	90%	100%	90%	90%	100%	80%	100%
Cc1cc(-c2ccc(C#N)cc2F)cc(C)c1C1C(=O)CC(CC(=O)NC(C)C)C1=O (stereo not drawn) [Compound A38]	80%	80%	100%	90%	90%	100%	80%	90%
Cc1cc(-c2ncc(Cl)cn2)cc(C)c1C1C(=O)CC(CC(=O)NC(C)(C)C)C1=O (stereo not drawn) [Compound A40]	100%	100%	100%	90%	100%	100%	100%	100%
Cc1cc(-c2ccc(Cl)cn2)cc(C)c1C1C(=O)CC(CC(=O)NC(C)(C)C)C1=O (stereo not drawn) [Compound A41]	100%	100%	100%	70%	100%	100%	100%	100%
C#Cc1cc(C)c(C2C(=O)CC(CC(=O)NC(C)C)C2=O)c(C)c1 (stereo not drawn) [Compound A42]	100%	100%	100%	100%	80%	100%	90%	100%
CCCCNC(=O)CC1CC(=O)C(c2c(C)cc(-c3ncc(Cl)cc3F)cc2C)C1=O (stereo not drawn) [Compound A44]	100%	100%	100%	100%	100%	100%	100%	100%
Cc1cc(-c2ncc(Cl)cc2F)cc(C)c1C1C(=O)CC(CC(=O)NC2CC2)C1=O (stereo not drawn) [Compound A45]	100%	100%	100%	100%	100%	100%	100%	100%
CCC(C)(C)NC(=O)CC1CC(=O)C(c2c(C)cc(-c3ncc(Cl)cc3F)cc2C)C1=O (stereo not drawn) [Compound A46]	100%	100%	100%	90%	100%	100%	100%	90%
COCCNC(=O)CC1CC(=O)C(c2c(C)cc(-c3ncc(Cl)cc3F)cc2C)C1=O (stereo not drawn) [Compound A47]	100%	100%	100%	100%	100%	100%	100%	100%
CC#Cc1cc(C)c(C2C(=O)CC(CC(=O)NC(C)(C)C)C2=O)c(CC)c1 (stereo not drawn) [Compound A48]	100%	100%	100%	90%	100%	100%	100%	100%
CC#Cc1cc(C)c(C2C(=O)CC(CC(=O)NCCOC)C2=O)c(CC)c1 (stereo not drawn) [Compound A49]	100%	100%	100%	100%	100%	100%	100%	100%
CC#Cc1cc(C)c(C2C(=O)CC(CC(=O)NC(C)(C)CC)C2=O)c(CC)c1 (stereo not drawn) [Compound A50]	100%	100%	100%	100%	100%	90%	100%	100%
CC#Cc1cc(C)c(C2C(=O)CC(CC(=O)NCCCC)C2=O)c(CC)c1 (stereo not drawn) [Compound A51]	100%	100%	100%	100%	100%	100%	100%	100%
CC#Cc1cc(C)c(C2C(=O)CC(CC(=O)NC3CCCC3)C2=O)c(CC)c1 (stereo not drawn) [Compound A52]	100%	100%	100%	90%	100%	90%	90%	90%
CC#Cc1cc(C)c(C2C(=O)CC(CC(=O)NCC(C)(C)C)C2=O)c(CC)c1 (stereo not drawn) [Compound A53]	100%	90%	90%	80%	100%	100%	90%	90%
